Patent publication US4386077A (Made Italiana s.r.l, priority 1981, dated 1983)

Experiments:
[1] = format: in vivo, rat; conditions: rats, oral (gastric gavage), 50 mg CDP-choline, 24 hours
Experimental: The labelled carbon atom is that of the methyl group of the choline moiety.
At different time intervals a certain amount of blood is collected and, after 24 hours from the beginning of the experiment, the animals are sacrificed. The amount of radioactivity is measured in predetermined serum volumes or weight of the various organs or tissues.
The values are expressed as c.p.m.x 10^-3 /gram of organ or tissue.

[2] = Cumulative urinary elimination in Cynomolgus monkeys; format: in vivo, Cynomolgus monkey
Experimental: (§1) Blood was collected at the following time: 0 (basal values) and 5, 10, 15, 30, 60 minutes, 2, 4, 7, 24 and 30 hours after the administration. From the end of the curves serum concentration/time, it was possible to calculate the constant of the apparent elimination speed from the organism as well as the relative half-life. These values were utilized in calculating the AUC T30 hours →T.infin. for the total of the curves concentration/time in the same animal. The AUC To →T30 hrs was calculated by means of the trapezium methods. […] For each dosage, a randomized cross-over procedure was used. Seriated blood samples were collected until 30 hours after each administration. From the single curves concentration/time it was possible to calculate the AUC To →T30 hrs. After each administration, including the intravenous one, urine was collected at the following time intervals: 0-24 hours, 24-48 hours and 48-72 hours.

[3] = Serum kinetics and absolute bioavailability of ^14 C-labelled CDP-choline and "ASONIC" after i.v. and oral administration in Cynomolgus monkeys; format: in vivo, Cynomolgus monkey; conditions: average and S.D. of 2 monkeys
Experimental: as §1, with “From” for “Blood was collected at the following time: 0 (basal values) and 5, 10, 15, 30, 60 minutes, 2, 4, 7, 24 and 30 hours after the administration. From”

For C[N+](C)(C)CCOP(=O)(O)OP(=O)([O-])OC[C@H]1O[C@@H](n2ccc(N)nc2=O)[C@H](O)[C@@H]1O [CDP-choline, cytidine diphosphocholine], the “Radioactivity value in brain” value [1] was 1.55 c.p.m.x 10^-3 /gram of organ o, the “Radioactivity value in kidney” value [1] was 46.3 c.p.m.x 10^-3 /gram of organ o and the “Radioactivity value in liver” value [1] was 65.4 c.p.m.x 10^-3 /gram of organ o. The “Radioactivity value in muscle” value [1] was 3.1 c.p.m.x 10^-3 /gram of organ o, the Cumulative urinary elimination ([2]; average and S.D. of 2 monkeys, 25 mg/kg i.v., 0-24 hr) was 50.65 ± 2.33 % OF THE ADMINISTERED DOSE and the Cumulative urinary elimination ([2]; average and S.D. of 2 monkeys, 25 mg/kg i.v., 0-72 hr) was 53.5 ± 3.25 % OF THE ADMINISTERED DOSE. For the same compound, the Cumulative urinary elimination ([2]; average and S.D. of 2 monkeys, 25 mg/kg i.v., 24-48 hr) was 2.5 ± 0.99 % OF THE ADMINISTERED DOSE, the Cumulative urinary elimination ([2]; average and S.D. of 2 monkeys, 25 mg/kg i.v., 48-72 hr) was 0.35 ± 0.07 % OF THE ADMINISTERED DOSE and the Cumulative urinary elimination ([2]; average and S.D. of 2 monkeys, 200 mg/kg per os, 0-24 hr) was 42.75 ± 6.15 % OF THE ADMINISTERED DOSE. The Cumulative urinary elimination ([2]; average and S.D. of 2 monkeys, 200 mg/kg per os, 0-72 hr) was 47.5 ± 3.11 % OF THE ADMINISTERED DOSE, the Cumulative urinary elimination ([2]; average and S.D. of 2 monkeys, 200 mg/kg per os, 24-48 hr) was 4.2 ± 2.83 % OF THE ADMINISTERED DOSE and the Cumulative urinary elimination ([2]; average and S.D. of 2 monkeys, 200 mg/kg per os, 48-72 hr) was 0.55 ± 0.21 % OF THE ADMINISTERED DOSE. For the same compound, the Cumulative urinary elimination ([2]; average and S.D. of 2 monkeys, 400 mg/kg per os, 0-24 hr) was 31.3 ± 9.3 % OF THE ADMINISTERED DOSE, the Cumulative urinary elimination ([2]; average and S.D. of 2 monkeys, 400 mg/kg per os, 0-72 hr) was 37.65 ± 8.98 % OF THE ADMINISTERED DOSE and the Cumulative urinary elimination ([2]; average and S.D. of 2 monkeys, 400 mg/kg per os, 24-48 hr) was 5.6 ± 0.56 % OF THE ADMINISTERED DOSE. The Cumulative urinary elimination ([2]; average and S.D. of 2 monkeys, 400 mg/kg per os, 48-72 hr) was 0.75 ± 0.21 % OF THE ADMINISTERED DOSE, the Cumulative urinary elimination ([2]; monkey no. 1, 25 mg/kg i.v., 0-24 hr) was 49 % OF THE ADMINISTERED DOSE and the Cumulative urinary elimination ([2]; monkey no. 1, 25 mg/kg i.v., 0-72 hr) was 51.2 % OF THE ADMINISTERED DOSE. The Cumulative urinary elimination ([2]; monkey no. 1, 25 mg/kg i.v., 24-48 hr) was 1.8 % OF THE ADMINISTERED DOSE, the Cumulative urinary elimination ([2]; monkey no. 1, 25 mg/kg i.v., 48-72 hr) was 0.4 % OF THE ADMINISTERED DOSE and the Cumulative urinary elimination ([2]; monkey no. 1, 200 mg/kg per os, 0-24 hr) was 38.4 % OF THE ADMINISTERED DOSE. For the same compound, the Cumulative urinary elimination ([2]; monkey no. 1, 200 mg/kg per os, 0-72 hr) was 45.3 % OF THE ADMINISTERED DOSE, the Cumulative urinary elimination ([2]; monkey no. 1, 200 mg/kg per os, 24-48 hr) was 6.2 % OF THE ADMINISTERED DOSE and the Cumulative urinary elimination ([2]; monkey no. 1, 200 mg/kg per os, 48-72 hr) was 0.7 % OF THE ADMINISTERED DOSE. The Cumulative urinary elimination ([2]; monkey no. 1, 400 mg/kg per os, 0-24 hr) was 24.7 % OF THE ADMINISTERED DOSE, the Cumulative urinary elimination ([2]; monkey no. 1, 400 mg/kg per os, 0-72 hr) was 31.3 % OF THE ADMINISTERED DOSE and the Cumulative urinary elimination ([2]; monkey no. 1, 400 mg/kg per os, 24-48 hr) was 6.0 % OF THE ADMINISTERED DOSE. The Cumulative urinary elimination ([2]; monkey no. 1, 400 mg/kg per os, 48-72 hr) was 0.6 % OF THE ADMINISTERED DOSE, the Cumulative urinary elimination ([2]; monkey no. 2, 25 mg/kg i.v., 0-24 hr) was 52.3 % OF THE ADMINISTERED DOSE and the Cumulative urinary elimination ([2]; monkey no. 2, 25 mg/kg i.v., 0-72 hr) was 55.8 % OF THE ADMINISTERED DOSE. For the same compound, the Cumulative urinary elimination ([2]; monkey no. 2, 25 mg/kg i.v., 24-48 hr) was 3.2 % OF THE ADMINISTERED DOSE, the Cumulative urinary elimination ([2]; monkey no. 2, 25 mg/kg i.v., 48-72 hr) was 0.3 % OF THE ADMINISTERED DOSE and the Cumulative urinary elimination ([2]; monkey no. 2, 200 mg/kg per os, 0-24 hr) was 47.1 % OF THE ADMINISTERED DOSE. For the same compound, the Cumulative urinary elimination ([2]; monkey no. 2, 200 mg/kg per os, 0-72 hr) was 49.7 % OF THE ADMINISTERED DOSE, the Cumulative urinary elimination ([2]; monkey no. 2, 200 mg/kg per os, 24-48 hr) was 2.2 % OF THE ADMINISTERED DOSE and the Cumulative urinary elimination ([2]; monkey no. 2, 200 mg/kg per os, 48-72 hr) was 0.4 % OF THE ADMINISTERED DOSE. The Cumulative urinary elimination ([2]; monkey no. 2, 400 mg/kg per os, 0-24 hr) was 37.9 % OF THE ADMINISTERED DOSE, the Cumulative urinary elimination ([2]; monkey no. 2, 400 mg/kg per os, 0-72 hr) was 44.0 % OF THE ADMINISTERED DOSE and the Cumulative urinary elimination ([2]; monkey no. 2, 400 mg/kg per os, 24-48 hr) was 5.2 % OF THE ADMINISTERED DOSE. For the same compound, the Cumulative urinary elimination ([2]; monkey no. 2, 400 mg/kg per os, 48-72 hr) was 0.9 % OF THE ADMINISTERED DOSE, the Plasmatic concentration ([3]; 25 mg/kg i.v., 5') was 10561 ± 2620 DPM/ml serum and the Plasmatic concentration ([3]; 25 mg/kg i.v., 15') was 4088 ± 1299 DPM/ml serum. It also gave a Plasmatic concentration ([3]; 25 mg/kg i.v., 30') of 2846 ± 877 DPM/ml serum, a Plasmatic concentration ([3]; 25 mg/kg i.v., 60') of 2127 ± 704 DPM/ml serum and a Plasmatic concentration ([3]; 25 mg/kg i.v., 2 hr) of 2397 ± 329 DPM/ml serum. For the same compound, the Plasmatic concentration ([3]; 25 mg/kg i.v., 4 hr) was 3064 ± 431 DPM/ml serum, the Plasmatic concentration ([3]; 25 mg/kg i.v., 7 hr) was 3566 ± 631 DPM/ml serum and the Plasmatic concentration ([3]; 25 mg/kg i.v., 24 hr) was 2035 ± 315 DPM/ml serum. It also gave a Plasmatic concentration ([3]; 25 mg/kg i.v., 30 hr) of 1947 ± 280 DPM/ml serum, a Plasmatic concentration ([3]; 200 mg/kg per os, 15') of 61 DPM/ml serum and a Plasmatic concentration ([3]; 200 mg/kg per os, 30') of 45 DPM/ml serum. The Plasmatic concentration ([3]; 200 mg/kg per os, 45') was 56 ± 4 DPM/ml serum, the Plasmatic concentration ([3]; 200 mg/kg per os, 60') was 91 ± 4.2 DPM/ml serum and the Plasmatic concentration ([3]; 200 mg/kg per os, 4 hr) was 154 ± 26 DPM/ml serum. The Plasmatic concentration ([3]; 200 mg/kg per os, 7 hr) was 774 ± 110 DPM/ml serum, the Plasmatic concentration ([3]; 200 mg/kg per os, 9 hr) was 669 ± 105 DPM/ml serum and the Plasmatic concentration ([3]; 200 mg/kg per os, 24 hr) was 378 ± 55 DPM/ml serum. For the same compound, the Plasmatic concentration ([3]; 200 mg/kg per os, 30 hr) was 344 ± 58 DPM/ml serum, the Plasmatic concentration ([3]; 400 mg/kg per os, 30') was 35 DPM/ml serum and the Plasmatic concentration ([3]; 400 mg/kg per os, 60') was 61 ± 12 DPM/ml serum. It also gave a Plasmatic concentration ([3]; 400 mg/kg per os, 90') of 40 ± 16 DPM/ml serum, a Plasmatic concentration ([3]; 400 mg/kg per os, 2 hr) of 78 ± 4.2 DPM/ml serum and a Plasmatic concentration ([3]; 400 mg/kg per os, 3 hr) of 181 ± 9.2 DPM/ml serum. It also gave a Plasmatic concentration ([3]; 400 mg/kg per os, 4 hr) of 448 ± 66 DPM/ml serum.
